Experimental data from ChEMBL document CHEMBL1201862, “PubChem BioAssay data set” (2004).
Active and inactive are the calls of the source.

How the values were obtained:
[1] = P. falciparum 3D7-ScDHODH growth inhibitors, dose response, SYBR Green, dry powder samples (AID 1159570); type: functional, cell-based;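 note: parasite growth measured after 72 hours of compound exposure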
[2] = P. falciparum Dd2 growth inhibitors, dose response, SYBR Green, cherry-picked samples (AID 1159567); type: functional, cell-based
[3] = P. falciparum Dd2 growth inhibitors, dose response, SYBR Green, dry powder samples (AID 1159566); type: functional, cell-based;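 note: potency for growth inhibition with lower SYBR green DNA signal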
[4] = HepG2 cell cytotoxicity, dose response, cytotoxicity control, cherry-picked samples (AID 1159577); type: functional, cell-based
[5] = P. falciparum ATP4 D1247Y mutant growth inhibitors, dose response, NITD609-resistant line, SYBR Green, dry powder (AID 1159571); type: functional, cell-based;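 note: parasites synchronized at ring stage by sorbitol before testing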
Trypsin = Trypsin (Sus scrofa, UniProt P00761); assay: porcine trypsin inhibitors, dose response, selectivity assay for Rce1 protease inhibitor project, biochemical, quenched peptide fluorescence, cherry-pick (AID 488789)
Sequence of Trypsin (P00761 whole entry): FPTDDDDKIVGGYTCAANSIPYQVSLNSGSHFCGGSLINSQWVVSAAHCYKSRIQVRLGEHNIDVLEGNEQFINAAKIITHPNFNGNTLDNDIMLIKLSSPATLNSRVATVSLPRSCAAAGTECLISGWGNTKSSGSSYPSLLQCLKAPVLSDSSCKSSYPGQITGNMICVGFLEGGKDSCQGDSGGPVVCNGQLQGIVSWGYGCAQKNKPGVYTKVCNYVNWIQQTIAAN

CAAX prenyl protease 2 = molecular target: T1, CAAX prenyl protease 2 (Saccharomyces cerevisiae S288c, UniProt Q03530); type: biochemical
T1 sequence (Q03530 whole entry): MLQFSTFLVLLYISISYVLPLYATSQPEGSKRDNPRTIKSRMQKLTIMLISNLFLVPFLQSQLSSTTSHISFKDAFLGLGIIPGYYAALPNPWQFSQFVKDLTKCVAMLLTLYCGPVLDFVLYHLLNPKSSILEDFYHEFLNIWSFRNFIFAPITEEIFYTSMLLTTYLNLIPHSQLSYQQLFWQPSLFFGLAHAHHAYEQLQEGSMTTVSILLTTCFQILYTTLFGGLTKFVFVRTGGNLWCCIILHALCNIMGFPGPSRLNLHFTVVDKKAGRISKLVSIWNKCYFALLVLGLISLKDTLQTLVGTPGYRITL

Protein Tat = Protein Tat (Human immunodeficiency virus type 1 group M subtype B (isolate HXB2)(HIV-1), UniProt P04608); type: functional;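 note: tat binding to TAR RNA read out by fluorescence polarization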
[6] = inhibitors of Vif binding to APOBEC3G peptide, primary screen, biochemical, TR-FRET, GST-Vif 1-94, biotin-A3G peptide, dose response retest (AID 1117319); type: functional;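 note: TR-FRET signal of purified GST-Vif binding a biotinylated A3G peptide; inhibitors lower the FRET signal by blocking Vif and A3G binding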
Genome polyprotein = Genome polyprotein (dengue virus type 2, UniProt P29990); assay: Dengue-2 NS5 methyltransferase inhibitors, primary screen, biochemical, confirmation dose response (AID 588689); type: functional
Sequence of Genome polyprotein (P29990 2492-3391 limits assumed): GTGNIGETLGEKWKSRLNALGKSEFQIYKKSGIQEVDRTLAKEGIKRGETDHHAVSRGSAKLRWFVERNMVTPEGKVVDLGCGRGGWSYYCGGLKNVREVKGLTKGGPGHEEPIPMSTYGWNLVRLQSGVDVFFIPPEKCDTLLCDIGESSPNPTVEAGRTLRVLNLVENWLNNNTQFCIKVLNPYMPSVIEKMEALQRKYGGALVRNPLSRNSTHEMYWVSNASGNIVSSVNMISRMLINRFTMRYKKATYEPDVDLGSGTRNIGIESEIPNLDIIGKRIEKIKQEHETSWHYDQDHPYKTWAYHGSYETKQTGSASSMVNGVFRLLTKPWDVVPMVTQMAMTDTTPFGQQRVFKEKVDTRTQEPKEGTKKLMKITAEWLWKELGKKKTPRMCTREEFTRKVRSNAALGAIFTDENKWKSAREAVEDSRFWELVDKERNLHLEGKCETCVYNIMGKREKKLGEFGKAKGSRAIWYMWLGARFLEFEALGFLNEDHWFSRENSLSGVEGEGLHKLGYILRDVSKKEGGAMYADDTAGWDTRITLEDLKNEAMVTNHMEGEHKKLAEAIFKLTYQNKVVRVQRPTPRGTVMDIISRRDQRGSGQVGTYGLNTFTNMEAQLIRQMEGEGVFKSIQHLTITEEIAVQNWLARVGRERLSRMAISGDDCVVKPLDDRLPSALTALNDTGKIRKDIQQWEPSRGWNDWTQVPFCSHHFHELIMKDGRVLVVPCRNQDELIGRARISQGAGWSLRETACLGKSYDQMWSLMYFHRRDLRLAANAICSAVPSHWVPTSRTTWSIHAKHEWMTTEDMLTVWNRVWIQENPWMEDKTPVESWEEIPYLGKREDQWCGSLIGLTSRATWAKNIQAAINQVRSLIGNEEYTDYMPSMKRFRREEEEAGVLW

[7] = molecular target: Peroxisome proliferator-activated receptor gamma/Nuclear receptor corepressor 2 (Homo sapiens, UniProt P37231+Q9Y618); assay: Counterscreen for NR2E3 inverse agonists: TR-FRET-based biochemical high throughput dose response assay to identify inverse agonists of the interaction between peroxisome proliferator-activated receptor gamma (PPARg) and nuclear receptor co-repressor 2 (NCOR2).; type: functional
Sequence of Peroxisome proliferator-activated receptor gamma/Nuclear receptor corepressor 2 (P37231 whole entry): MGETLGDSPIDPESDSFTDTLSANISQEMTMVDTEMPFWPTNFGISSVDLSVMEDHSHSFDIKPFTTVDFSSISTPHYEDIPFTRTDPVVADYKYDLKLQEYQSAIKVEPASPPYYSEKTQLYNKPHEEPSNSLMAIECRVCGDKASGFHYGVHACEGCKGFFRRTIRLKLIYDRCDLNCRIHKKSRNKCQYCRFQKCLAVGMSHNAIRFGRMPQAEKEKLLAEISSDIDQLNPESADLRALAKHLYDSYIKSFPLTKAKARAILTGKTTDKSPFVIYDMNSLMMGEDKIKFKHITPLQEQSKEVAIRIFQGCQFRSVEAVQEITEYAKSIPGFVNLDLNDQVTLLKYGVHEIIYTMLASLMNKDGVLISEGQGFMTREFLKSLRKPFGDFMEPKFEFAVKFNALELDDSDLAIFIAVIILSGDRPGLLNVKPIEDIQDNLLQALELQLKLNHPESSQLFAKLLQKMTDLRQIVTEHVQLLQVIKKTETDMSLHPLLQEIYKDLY
Sequence of Peroxisome proliferator-activated receptor gamma/Nuclear receptor corepressor 2 (Q9Y618 whole entry): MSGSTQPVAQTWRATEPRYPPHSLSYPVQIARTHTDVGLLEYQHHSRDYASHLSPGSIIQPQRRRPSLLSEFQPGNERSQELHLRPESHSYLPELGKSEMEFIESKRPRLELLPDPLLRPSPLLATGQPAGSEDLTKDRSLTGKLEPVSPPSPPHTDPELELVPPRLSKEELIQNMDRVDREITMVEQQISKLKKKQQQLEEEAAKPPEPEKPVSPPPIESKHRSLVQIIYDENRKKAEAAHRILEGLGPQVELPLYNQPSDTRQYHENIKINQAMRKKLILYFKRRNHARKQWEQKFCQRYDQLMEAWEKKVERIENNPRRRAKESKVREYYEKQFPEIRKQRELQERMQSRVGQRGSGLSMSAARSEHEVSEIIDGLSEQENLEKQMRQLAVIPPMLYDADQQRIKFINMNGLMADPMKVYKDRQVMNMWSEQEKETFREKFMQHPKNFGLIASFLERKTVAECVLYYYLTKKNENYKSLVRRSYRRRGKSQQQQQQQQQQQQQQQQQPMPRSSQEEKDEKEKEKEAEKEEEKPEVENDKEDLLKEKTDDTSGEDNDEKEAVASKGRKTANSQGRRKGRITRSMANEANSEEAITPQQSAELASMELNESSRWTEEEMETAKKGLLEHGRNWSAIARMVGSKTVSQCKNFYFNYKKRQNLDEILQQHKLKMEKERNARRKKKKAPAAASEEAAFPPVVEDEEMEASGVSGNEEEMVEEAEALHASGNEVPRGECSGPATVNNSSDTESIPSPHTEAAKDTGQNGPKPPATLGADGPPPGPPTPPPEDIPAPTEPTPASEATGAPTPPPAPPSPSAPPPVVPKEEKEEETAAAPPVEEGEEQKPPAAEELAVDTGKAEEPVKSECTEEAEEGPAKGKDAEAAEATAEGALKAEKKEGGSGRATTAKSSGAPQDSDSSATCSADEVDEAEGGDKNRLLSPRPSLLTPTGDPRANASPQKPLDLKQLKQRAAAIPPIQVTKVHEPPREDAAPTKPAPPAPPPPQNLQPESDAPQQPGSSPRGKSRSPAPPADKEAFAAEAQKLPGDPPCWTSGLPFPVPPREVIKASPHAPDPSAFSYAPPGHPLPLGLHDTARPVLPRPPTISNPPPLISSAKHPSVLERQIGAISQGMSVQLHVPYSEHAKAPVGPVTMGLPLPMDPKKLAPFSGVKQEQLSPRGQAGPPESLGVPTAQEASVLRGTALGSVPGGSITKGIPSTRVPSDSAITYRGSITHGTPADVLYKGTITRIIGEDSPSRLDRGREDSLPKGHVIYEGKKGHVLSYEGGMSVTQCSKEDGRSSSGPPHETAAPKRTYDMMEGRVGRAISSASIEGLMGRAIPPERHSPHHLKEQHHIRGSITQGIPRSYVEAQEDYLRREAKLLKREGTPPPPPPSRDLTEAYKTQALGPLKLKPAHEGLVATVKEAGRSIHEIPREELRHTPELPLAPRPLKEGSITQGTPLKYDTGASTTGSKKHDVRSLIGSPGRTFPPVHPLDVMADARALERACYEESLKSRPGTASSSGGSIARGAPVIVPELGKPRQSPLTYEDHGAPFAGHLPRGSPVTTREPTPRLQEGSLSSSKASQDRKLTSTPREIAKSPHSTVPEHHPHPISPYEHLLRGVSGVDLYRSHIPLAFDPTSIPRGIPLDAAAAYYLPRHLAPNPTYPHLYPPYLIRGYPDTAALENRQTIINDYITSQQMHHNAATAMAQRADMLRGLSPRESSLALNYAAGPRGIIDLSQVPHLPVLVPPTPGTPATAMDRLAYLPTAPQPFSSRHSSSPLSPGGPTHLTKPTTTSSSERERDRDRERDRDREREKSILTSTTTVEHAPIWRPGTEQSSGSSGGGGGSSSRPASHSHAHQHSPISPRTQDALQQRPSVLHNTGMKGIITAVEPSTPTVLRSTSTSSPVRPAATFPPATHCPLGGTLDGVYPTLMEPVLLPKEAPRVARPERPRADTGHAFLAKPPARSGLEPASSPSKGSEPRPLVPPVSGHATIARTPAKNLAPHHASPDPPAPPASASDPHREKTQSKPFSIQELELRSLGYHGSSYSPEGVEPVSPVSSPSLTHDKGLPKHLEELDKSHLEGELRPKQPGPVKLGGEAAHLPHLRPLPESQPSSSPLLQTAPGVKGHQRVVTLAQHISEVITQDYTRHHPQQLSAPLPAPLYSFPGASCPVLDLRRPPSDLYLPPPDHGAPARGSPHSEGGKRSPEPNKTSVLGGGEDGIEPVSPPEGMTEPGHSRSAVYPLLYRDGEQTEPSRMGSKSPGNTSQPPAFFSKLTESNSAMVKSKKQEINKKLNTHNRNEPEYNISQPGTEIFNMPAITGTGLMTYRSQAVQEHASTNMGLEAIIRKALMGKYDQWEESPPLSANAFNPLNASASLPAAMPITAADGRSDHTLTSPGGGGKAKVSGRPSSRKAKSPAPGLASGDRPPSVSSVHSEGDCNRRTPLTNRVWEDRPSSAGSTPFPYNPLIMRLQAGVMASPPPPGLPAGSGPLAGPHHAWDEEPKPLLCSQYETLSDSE

[8] = molecular target: Photoreceptor-specific nuclear receptor (Homo sapiens, UniProt Q9Y5X4); assay: NR2E3 inverse agonists, dose response, biochemical, TR-FRET (AID 463256); type: functional
Sequence of Photoreceptor-specific nuclear receptor (Q9Y5X4 whole entry): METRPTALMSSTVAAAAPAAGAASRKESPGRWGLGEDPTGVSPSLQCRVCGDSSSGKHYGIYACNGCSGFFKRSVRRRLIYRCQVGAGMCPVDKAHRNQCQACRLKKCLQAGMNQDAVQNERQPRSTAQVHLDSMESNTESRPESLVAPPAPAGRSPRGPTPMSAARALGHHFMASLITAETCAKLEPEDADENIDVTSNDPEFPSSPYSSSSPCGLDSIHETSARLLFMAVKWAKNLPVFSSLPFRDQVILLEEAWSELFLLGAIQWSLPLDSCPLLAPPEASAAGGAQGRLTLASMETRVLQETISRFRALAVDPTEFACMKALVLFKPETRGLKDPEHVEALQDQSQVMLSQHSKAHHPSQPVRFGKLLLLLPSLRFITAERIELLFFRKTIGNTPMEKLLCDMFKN

[9] = miR-122 activators in hepatoma reporter cells, dose response, cell-based, Huh7 psiCHECK-miR122, Renilla luciferase, cherry-picked (AID 651956); type: functional;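 note: huh7 hepatoma cells stably carrying a psiCHECK-2 miR-122 sensor plasmid; renilla luciferase signal reporting endogenous miR-122 activity after 48 h compound exposure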
[10] = HEK293T cytotoxicity, dose response, cytotoxicity control for miR-122 modulator project, cell-based, inhibitor set, cherry-pick, set 2 (AID 720697); type: functional
[11] = HEK293T cytotoxicity, dose response, cytotoxicity control for miR-122 modulator project, cell-based, activator set, cherry-pick (AID 720690); type: functional;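 note: HEK293T human cells scored for general mammalian cytotoxicity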
[12] = P. falciparum Dd2 growth inhibitors, dose response, SYBR Green, dry powder samples, set 9 (AID 1159568); type: functional, cell-based
[13] = Luminescence-based cell-based high throughput dose response assay to identify activators of the DAF-12 from the parasite S. stercoralis (ssDAF-12).; type: functional
[14] = molecular target: T2, Oxysterols receptor LXR-beta (Homo sapiens, UniProt P55055); assay: LXR agonists, Gal4 luciferase reporter, dose response, counter-screen for ssDAF-12 agonist project, cell-based, luminescence, HEK293, S. stercoralis campaign (AID 720737); type: functional; details: read-out: IC50 (the source's name)
T2 sequence (P55055 whole entry): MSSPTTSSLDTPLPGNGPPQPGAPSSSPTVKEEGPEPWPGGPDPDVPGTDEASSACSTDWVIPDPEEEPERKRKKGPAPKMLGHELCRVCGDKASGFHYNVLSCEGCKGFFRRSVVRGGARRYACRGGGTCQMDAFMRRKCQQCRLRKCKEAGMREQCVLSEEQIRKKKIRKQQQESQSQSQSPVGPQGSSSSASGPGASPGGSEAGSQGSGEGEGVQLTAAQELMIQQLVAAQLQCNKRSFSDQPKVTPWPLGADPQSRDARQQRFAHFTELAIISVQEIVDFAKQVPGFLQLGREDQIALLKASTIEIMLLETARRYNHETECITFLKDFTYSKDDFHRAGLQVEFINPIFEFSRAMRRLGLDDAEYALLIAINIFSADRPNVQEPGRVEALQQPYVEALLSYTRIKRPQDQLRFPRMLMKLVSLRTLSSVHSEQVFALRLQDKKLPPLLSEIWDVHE

[15] = molecular target: Heat shock protein HSP 90-alpha (Homo sapiens, UniProt P07900); assay: Luminescence-based dose response biochemical high throughput screening assay for inhibitors of the Heat Shock Protein 90 (HSP90). [Related pubchem assays: 1831 (Summary AID.), 1846 (Confirmation screen.), 1789 (Primary screen.)]
[16] = Concentration-dependent survival of SW480 colon cancer line, luminescence detection with CellTiter-Glo, half-maximal inhibitory concentration (AID 1117338); type: functional
[17] = RKO cell viability reduction, dose response, CellTiter-Glo luminescence (AID 1117322); type: functional
[18] = cytotoxicity toward HCT116 cells – cell-based, CellTiter-Glo luminescence, IC50, dose response (AID 1117332); type: functional; details: HCT-116
[19] = SNU-C1 cell viability reduction, dose response, CellTiter-Glo luminescence (AID 1117323); type: functional, cell-based
[20] = cytotoxicity toward Colo320 cells – cell-based, CellTiter-Glo luminescence, IC50, dose response (AID 1117334); type: functional; details: COLO 320
[21] = cytotoxicity toward HT-29 cells – cell-based, CellTiter-Glo luminescence, IC50, dose response (AID 1117330); type: functional
[22] = CellTiter-Glo luminescent dose response of DLD-1 viability loss (AID 1117352); type: functional
Paired box protein Pax-8 = Paired box protein Pax-8 (Homo sapiens, UniProt Q06710); assay: inhibitors of PAX8-driven TPO luciferase reporter, dose response, RMG-I cells, cherry-pick (AID 687027); type: functional, cell-based;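 note: luciferase reporter driven by Pax8 target thyroperoxidase promoter measured by SteadyGlo luminescence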
Sequence of Paired box protein Pax-8 (Q06710 whole entry): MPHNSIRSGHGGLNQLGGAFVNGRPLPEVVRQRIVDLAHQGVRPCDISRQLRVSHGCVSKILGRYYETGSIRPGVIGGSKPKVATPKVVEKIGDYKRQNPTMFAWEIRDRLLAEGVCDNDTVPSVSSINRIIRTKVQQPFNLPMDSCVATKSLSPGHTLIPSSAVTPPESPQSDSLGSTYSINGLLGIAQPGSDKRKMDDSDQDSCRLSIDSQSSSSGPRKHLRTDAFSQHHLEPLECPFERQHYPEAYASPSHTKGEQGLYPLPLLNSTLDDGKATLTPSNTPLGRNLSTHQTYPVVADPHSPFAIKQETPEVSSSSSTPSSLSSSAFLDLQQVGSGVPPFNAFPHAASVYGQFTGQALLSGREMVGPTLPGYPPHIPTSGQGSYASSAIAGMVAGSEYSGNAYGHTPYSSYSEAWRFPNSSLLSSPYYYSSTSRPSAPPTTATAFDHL

[23] = IOSE-T80 ovarian epithelial cell cytotoxicity, dose response, cytotoxicity control for PAX8 inhibitor project, plate reader, dry powder samples (AID 743045); type: functional, cell-based
[24] = NIH:OVCAR-3 ovarian cancer cell cytotoxicity, dose response, PAX8 inhibitor project, plate reader, dry powder samples (AID 743044); type: functional, cell-based
[25] = IGROV1 ovarian cancer cell cytotoxicity, dose response, PAX8 inhibitor project, plate reader, dry powder samples (AID 743043); type: functional, cell-based; details: IGROV-1
[26] = cytotoxicity in OVCAR8 ovarian cancer cells, dose response, PAX8 project, cell-based, plate reader, dry powder samples (AID 743197); type: functional; details: OVCAR-8

SMILES: COc1ccc(NC(=O)N2CC(=O)N3[C@@H](CO)[C@H](c4ccc(C#CCC5CCCC5)cc4)[C@@H]3C2)cc1
- AC50 [1]: 2.19 µM (active)
- AC50 [2]: 3.79 µM (active)
- AC50 [3]: 2.17 µM (active)
- AC50 [4]: > 42 µM (inactive)
- AC50 [5]: 2.84 µM (active)

SMILES: O=C(O)c1cc(-c2ccc(N3CCOCC3)cc2)nn1-c1ccc(F)cc1F
- AC50 (Trypsin): 6.65 µM (active)
- AC50 (CAAX prenyl protease 2): 13.5 µM (active)
- IC50 (Protein Tat): > 100 µM (active)
- IC50 [6]: > 100 µM (active)

SMILES: O=C(O)c1[nH]c2ccccc2c1C(c1cc(Br)ccc1O)c1c(C(=O)O)[nH]c2ccccc12
- IC50 (Genome polyprotein): 16 µM (active)
- AC50 (cells): 9.21 µM (active)

SMILES: Cc1ccc2c(Cl)c(C(=O)Nc3cc(C)on3)sc2c1
- IC50 [7]: 14.1 µM (not active)
- IC50 [8]: 12.7 µM (not active)

SMILES: CN1C(=O)c2cc(NC(=O)c3ccc(C(F)(F)F)cc3)ccc2OC[C@H]2O[C@@H](CC(=O)NCc3ccc4c(c3)OCO4)CC[C@H]21
- AC50 [9]: 10.9 µM (active)
- AC50 [10]: 7.69 µM (active)
- AC50 [11]: 16.2 µM (active)
- AC50 [12]: 17.8 µM (active)

SMILES: COc1ccc(C(=O)Nc2ccc3ccccc3c2)c(OC)c1
- IC50 [13]: > 67.5 µM (inactive)
- EC50 [14]: > 67.5 µM (inactive)

SMILES: O=C(Nc1cccc(-c2nc3cccnc3s2)c1)c1ccc(Cl)nc1
- IC50 [7]: 1.8 µM (active)
- IC50 [8]: 3.37 µM (active)

SMILES: C=CCOC(=O)c1sc(NC(=O)c2ccc(OC)cc2)nc1C
- IC50 [15]: 3.58 µM (active)

SMILES: CCOC(=O)Oc1ccc(CCNC(=O)[C@H](CCSC)NC(C)=O)cc1OC(=O)OCC [DOCARPAMINE]
- IC50 [16]: > 20 µM (inactive)
- IC50 [17]: > 20 µM (inactive)
- IC50 [18]: > 20 µM (inactive)
- IC50 [19]: > 20 µM (inactive)
- IC50 [20]: > 20 µM (inactive)
- IC50 [21]: > 20 µM (inactive)
- IC50 [22]: > 20 µM (inactive)

SMILES: COc1ccccc1NC(=O)N1CCCCN2[C@@H](CO)[C@@H](c3ccc(-c4cccc(C)c4)cc3)[C@@H]2C1
- AC50 (Paired box protein Pax-8): 13.2 µM (active)
- AC50 [23]: 67.5 µM (active)
- AC50 [24]: 31.6 µM (active)
- AC50 [25]: 28.4 µM (active)
- AC50 [26]: 68.6 µM (active)
- AC50 [2]: 1.43 µM (active)
- AC50 [4]: 11.2 µM (active)
